Reference: patent US8097650B2, “Method of treating a condition associated with phosphorylation of TASK-1” (The Trustees of Columbia University In The City of New York, priority 2005, dated 2012)

Experiments:
[1] = tested on: human TASK-1 S358A; experiment: Human TASK-1 S358A mutant current in CHO cells; format: cell-based; details: Tyrode's pH 8, ramp
Text: FIGS. 24A-24B. Mutations in human TASK-1 remove the sensitivity to C-PAF and PMA when the channel is expressed in CHO cells. Two human TASK-1 (hTASK-1) mutants in which either serine-358 was converted to alanine (S358A) or threonine-383 was converted to alanine (T383A) were generated and separately expressed in CHO cells. The C-PAF-sensitive (24A) and PMA-sensitive currents (24B) were obtained in Tyrode's at pH 8 using a ramp protocol in […] configuration, essentially as described in FIG. 15. […] However, the S358A channel was not inhibited in the presence of C-PAF (24A) and the T383A channel was not inhibited by PMA (24B).

[2] = tested on: atrial fibrillation; experiment: Peri-operative atrial fibrillation dog model; format: in vivo
Description: FIG. 29. […] Peri-operative AF was induced in a dog three days after a right atriotomy by brief, rapid pacing. Routinely, this procedure results in AF that continues for at least 30 min and is only stopped by electrical cardioversion. Panel A depicts an EKG trace of the animal just prior to the induction of AF. This run of AF continued for 30 min and the animal was shocked into a normal sinus rhythm (NSR). After 15 min, a second run of AF was induced and a recording of the EKG obtained during this period of AF is shown in Panel B. 20 min later, ONO-RS-082 (0.7 mg/kg) was infused over 2 min. The heart rate slowed within 1 min of the administration of the drug and the EKG normalized within 5 min and persisted in NSR for over an hour at which point the experiment was terminated (Panel C).
Peri-operative AF was induced in a dog three days after a right atriotomy by brief, rapid pacing. Routinely, this procedure results in AF that continues for at least 30 min and is only stopped by electrical cardioversion. Panel A of FIG. 29 depicts an EKG trace of the animal just prior to the induction of AF. This run of AF continued for 30 min and the animal was shocked into a normal sinus rhythm (NSR). After 15 min, a second run of AF was induced and a recording of the EKG obtained during this period of AF is shown in Panel B. 20 min later, ONO-RS-082 (0.7 mg/kg) was infused over 2 min. Following administration of the drug, the heart rate slowed within 1 min of the administration of the drug and the EKG normalized within 5 min and persisted in NSR for over an hour at which point the experiment was terminated (FIG. 29, Panel C).

[3] = target: T1, mTRAAK (Mus musculus, UniProt O88454); experiment: mTRAAK current in HEK cells (ramp clamp); format: cell-based; details: read-out: EC50 for activation of TRAAK current
T1 construct: expressed in transfected cells; host or cells: HEK cells
T1 sequence (O88454 1-398): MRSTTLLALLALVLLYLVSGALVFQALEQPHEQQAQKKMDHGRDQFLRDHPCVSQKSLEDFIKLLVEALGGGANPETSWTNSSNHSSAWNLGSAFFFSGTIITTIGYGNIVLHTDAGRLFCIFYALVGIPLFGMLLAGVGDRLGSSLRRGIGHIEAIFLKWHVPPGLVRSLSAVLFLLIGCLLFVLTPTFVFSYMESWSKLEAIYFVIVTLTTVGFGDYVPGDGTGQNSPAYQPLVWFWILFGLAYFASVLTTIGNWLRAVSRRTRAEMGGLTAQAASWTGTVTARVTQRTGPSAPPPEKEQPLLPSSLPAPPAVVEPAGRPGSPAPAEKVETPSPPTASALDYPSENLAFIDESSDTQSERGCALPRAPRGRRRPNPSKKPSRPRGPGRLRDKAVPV
Description: FIG. 21. CHO cells (hTREK-1, hTASK-1) or HEK cells (mTRAAK) were co-transfected with plasmids encoding one of the two pore domain channels and GFP using the GeneJammer reagent. After 48-60 h, the expressed current was measured using a ramp protocol while the cells were perfused with regular Tyrode's solution containing varying concentrations of ONO-RS-082 (range of concentration from 10 nM to 500 μM as noted in FIG. 21) until a steady state was reached. Each cell was exposed to only one concentration of drug. Panel A: TREK-1 current was determined using a ramp clamp, and the percent increase induced by ONO-RS-082 was measured at the most positive imposed voltage (n≧5). The EC50 for activation was around 3 μM and the basal and ONO-activated current densities are noted. Panel B: TASK-1 current was determined using a ramp clamp in Tyrode's solution at pH=8 and the percent increase induced by ONO-RS-082 was measured at the most positive imposed voltage (n≧4). The EC50 was around 8 μM and the basal and ONO-activated current densities are noted. Panel C: TRAAK current was determined using a ramp clamp, and the percent increase induced by ONO-RS-082 was measured at the most positive imposed voltage (n≧4). The EC50 was around 0.9 μM and the basal and ONO-activated current densities are noted.

[4] = tested on: murine ventricular myocytes; experiment: Arrhythmias induced by PKCε activator peptide in murine ventricular myocytes, rescue by TREK-1 activators; format: cell-based, mouse
Description: FIGS. 23A-23D. Activation of TREK-1 can overcome arrhythmias induced by inhibition of TASK-1. Isolated murine ventricular myocytes were studied in current clamp mode and paced at 1 Hz. The cells were studied in regular Tyrode's, pH 7.4. Recordings were begun immediately after rupture and continued for 12-15 min, with the 5.5 min time point illustrated. A PKCε-specific activator peptide (100 nM) was included in the patch pipette, which lead to inhibition of TASK-1 current and repolarization abnormalities (23A and 23B).
FIG. 25. Activation of TREK-1 can overcome arrhythmias induced by inhibition of TASK-1. Isolated murine ventricular myocytes were studied in current clamp mode and paced at 1 Hz. The cells were studied in regular Tyrode's, pH 7.4. Recordings were begun immediately after rupture and continued for 12-15 min. A PKCε-specific activator peptide (100 nM) […] or a scrambled control peptide (100 nM) (25A) was included in the patch pipette. After the activator peptide had induced repolarization abnormalities (25B left panel), a TREK-1 activator, ONO-RS-082 (100 nM) was added to the superfusion.
Isolated murine ventricular myocytes were studied in current clamp mode and paced at 1 Hz. The cells were studied in regular Tyrode's, pH 7.4, and recordings were begun immediately after rupture and continued for 12-15 min, with the 5.5 min timepoint illustrated. As shown in FIGS. 23A and 23B, a PKCε-specific activator peptide (100 nM) was included in the patch pipette which lead to inhibition of TASK-1 current and repolarization abnormalities.

EC50 [3] [µM] | SMILES | inhibition of S358A channel [1] | effect on atrial fibrillation ([2]; 0.7 mg/kg) | persistence in normal sinus rhythm ([2]; 0.7 mg/kg infused over 2 min) | time to normalization of EKG ([2]; 0.7 mg/kg infused over 2 min) [min] | time to slowing of heart rate after administration ([2]; 0.7 mg/kg infused over 2 min) [min] | effect on established peptide-induced arrhythmia ([4]; ONO-RS-082 100 nM in superfusion) | rhythm after washout of drug ([4]; ONO-RS-082 removed)
 | CCCCCCCCCCCCCCCCOC[C@H](COP(=O)([O-])OCC[N+](C)(C)C)OC(=O)NC [C-PAF, carbamyl-platelet-activating factor] | not inhibited |  |  |  |  |  | 
~0.9 | CCCCCc1ccc(C=CC(=O)Nc2cc(Cl)ccc2C(=O)O)cc1 [ONO-RS-082] |  | halts atrial fibrillation | over an hour | ≤ 5 | ≤ 1 | promptly reversed the arrhythmia | the arrhythmias recurred
